US8674109B2, “Pesticidal compositions” (Dow AgroSciences, LLC., priority 2009, dated 2014)

Columns and labels:
Format in all cases: in vivo
[1] = tested on: green peach aphid (Myzus persicae); assay: Insecticidal test for green peach aphid in foliar spray assay on cabbage seedlings
Description: Insecticidal Test for Green Peach Aphid (Myzus persicae) in Foliar Spray Assay
Cabbage seedlings grown in 3-inch pots, with 2-3 small (3-5 cm) true leaves, were used as test substrate. The seedlings were infested with 20-50 green peach aphids (wingless adult and nymph) one day prior to chemical application. Four pots with individual seedlings were used for each treatment. Compounds (2 mg) were dissolved in 2 mL of acetone/methanol (1:1) solvent, forming stock solutions of 1000 ppm. The stock solutions were diluted 5× with 0.025% Tween 20 in H2O to obtain the solution at 200 ppm. A hand-held Devilbiss sprayer was used for spraying a solution to both sides of cabbage leaves until runoff. Reference plants (solvent check) were sprayed with the diluent only. Treated plants were held in a holding room for three days at approximately 25° C. and 40% relative humidity (RH) prior to grading. Evaluation was conducted by counting the number of live aphids per plant under a microscope. Insecticidal activity was measured by using Abbott's correction formula are presented in Table 2: Corrected % Control=100*(X−Y)/X
where • X=No. of live aphids on solvent check plants • Y=No. of live aphids on treated plants

[2] = tested on: beet armyworm (BAW; Spodoptera exigua: Lepidoptera); assay: Insecticidal test for beet armyworm, 128-well diet tray assay
Description: Insecticidal Test for Beet Armyworm (Spodoptera exigua)
(§1) Bioassays on beet armyworm (BAW; Spodoptera exigua: Lepidoptera) were conducted using a 128-well diet tray assay. Three to five second instar BAW larvae were placed in each well (3 mL) of the diet tray that had been previously filled with 1 mL of artificial diet to which 50 μg/cm^2 of the test compound (dissolved in 50 μL of 90:10 acetone-water mixture) had been applied (to each of eight wells) and then allowed to dry. Trays were covered with a clear self-adhesive cover, and held at 25° C., 14:10 light-dark for six days. Percent mortality was recorded for the larvae in each well; activity in the eight wells was then averaged.

[3] = tested on: corn earworm (CEW; Helicoverpa zea: Lepidoptera); assay: Insecticidal test for corn earworm, 128-well diet tray assay
Description: Insecticidal Test for Corn Earworm (Helicoverpa zea)
as §1, with “corn earworm (CEW; Helicoverpa zea:” for “beet armyworm (BAW; Spodoptera exigua:”, “CEW” for “BAW”

SMILES | % Mortality GPA 200 ppm [1] | % Mortality BAW 50 μg/cm^2 [2] | % Mortality CEW 50 μg/cm^2 [3]
CO[C@@H]1O[C@@H](C)[C@H](OC)[C@@H](OC(=O)Nc2ccc(-c3ncn(-c4ccc(OC(F)(F)F)cc4)n3)cc2)[C@H]1OC [Compound 2] | B (Less than 80) | A (50-100) | B (Less than 50)
COc1ccc(C(C)OC(=O)Nc2ccc(-c3ncn(-c4ccc(OC(F)(F)F)cc4)n3)cc2)nc1 (stereo not drawn) [Compound 119] | B (Less than 80) | A (50-100) | A (50-100)
CC(OC(=O)Nc1ccc(-c2ncn(-c3ccc(OC(F)(F)F)cc3)n2)cc1)c1ccc(Cl)cc1 (stereo not drawn) [Compound 81] | B (Less than 80) | A (50-100) | A (50-100)
O=C(Nc1ccc(-c2ncn(-c3ccc(OC(F)(F)F)cc3)n2)cc1)OCc1ccccc1 [Compound 105] | B (Less than 80) | A (50-100) | A (50-100)
CC(OC(=O)Nc1ccc(-c2ncn(-c3ccc(OC(F)(F)F)cc3)n2)cc1)c1ccc2ccccc2n1 (stereo not drawn) [Compound 36] | B (Less than 80) | A (50-100) | A (50-100)
CCC(OC(=O)Nc1ccc(-c2ncn(-c3ccc(OC(F)(F)F)cc3)n2)cc1)c1ccc(C(F)(F)F)cc1 (stereo not drawn) [Compound 67] | B (Less than 80) | A (50-100) | A (50-100)
CCOC(=O)c1csc(C(=O)C(C)(C)OC(=O)Nc2ccc(-c3ncn(-c4ccc(OC(F)(F)F)cc4)n3)cc2)n1 [Compound 7] | B (Less than 80) | B (Less than 50) | B (Less than 50)
CCC(OC(=O)Nc1ccc(-c2ncn(-c3ccc(C(F)(F)F)cc3)n2)cc1)c1ccccc1 (stereo not drawn) [Compound 30] | B (Less than 80) | A (50-100) | A (50-100)
CC(C)(C)OC(=O)Nc1ccc(-c2ncn(-c3ccc(OC(F)(F)C(F)(F)F)cc3)n2)cc1 [Compound 1, {4-[1-(4-pentafluoroethyloxyphenyl)-1H-[1,2,4]triazol-3-yl]-phenyl}-carbamic acid tert-butyl ester] | B (Less than 80) | A (50-100) | A (50-100)
Cc1cccc(C(C)OC(=O)Nc2ccc(-c3ncn(-c4ccc(OC(F)(F)F)cc4)n3)cc2)c1 (stereo not drawn) [Compound 92] | B (Less than 80) | A (50-100) | A (50-100)
Cc1cccc(C)c1C(C)OC(=O)Nc1ccc(-c2ncn(-c3ccc(OC(F)(F)F)cc3)n2)cc1 (stereo not drawn) [Compound 89] | B (Less than 80) | A (50-100) | A (50-100)
CC(OC(=O)Nc1ccc(-c2ncn(-c3ccc(OC(F)(F)F)cc3)n2)cc1)c1ccc(C(F)(F)F)cc1C(F)(F)F (stereo not drawn) [Compound 115] | B (Less than 80) | B (Less than 50) | B (Less than 50)
O=C(Nc1ccc(-c2ncn(-c3ccc(OC(F)(F)F)cc3)n2)cc1)OC(c1ccoc1)C(F)(F)F (stereo not drawn) [Compound 80] | B (Less than 80) | A (50-100) | A (50-100)
C#CC(OC(=O)Nc1ccc(-c2ncn(-c3ccc(C(F)(F)F)cc3)n2)cc1)c1ccccc1 (stereo not drawn) [Compound 31] | B (Less than 80) | A (50-100) | A (50-100)
CC(OC(=O)Nc1ccc(-c2ncn(-c3ccc(OC(F)(F)F)cc3)n2)cc1)c1ccc(C(F)(F)F)nc1 (stereo not drawn) [Compound 41] | B (Less than 80) | A (50-100) | A (50-100)
O=C(Nc1ccc(-c2ncn(-c3ccc(OC(F)(F)F)cc3)n2)cc1)OC(c1ccccc1)C(F)(F)F (stereo not drawn) [Compound 90] | B (Less than 80) | A (50-100) | A (50-100)
CC(OC(=O)Nc1ccc(-c2ncn(-c3ccc(OC(F)(F)F)cc3)n2)cc1)c1ccc(F)cc1 (stereo not drawn) [Compound 84] | B (Less than 80) | A (50-100) | A (50-100)
CCC(OC(=O)Nc1ccc(-c2ncn(-c3ccc(OC(F)(F)F)cc3)n2)cc1)c1cccc(Br)c1 (stereo not drawn) [Compound 63] | B (Less than 80) | A (50-100) | A (50-100)
CC(OC(=O)Nc1ccc(-c2ncn(-c3ccc(OC(F)(F)F)cc3)n2)cc1)c1ccc(C(F)(F)F)cc1 (stereo not drawn) [Compound 42] | B (Less than 80) | A (50-100) | A (50-100)
CC(C)(OC(=O)Nc1ccc(-c2ncn(-c3ccc(OC(F)(F)F)cc3)n2)cc1)c1ccccc1 [Compound 21] | B (Less than 80) | A (50-100) | A (50-100)
CCOC(=O)CC(C)OC(=O)Nc1ccc(-c2ncn(-c3ccc(OC(F)(F)F)cc3)n2)cc1 (stereo not drawn) [Compound 17] | B (Less than 80) | B (Less than 50) | A (50-100)
CC(OC(=O)Nc1ccc(-c2ncn(-c3ccc(OC(F)(F)F)cc3)n2)cc1)C(C)(C)C (stereo not drawn) [Compound 103] | B (Less than 80) | A (50-100) | B (Less than 50)
O=C(Nc1ccc(-c2ncn(-c3ccc(OC(F)(F)F)cc3)n2)cc1)OC1Cc2ccccc2C1 [Compound 106] | B (Less than 80) | B (Less than 50) | A (50-100)
COc1ccc(CC(C)(C)OC(=O)Nc2ccc(-c3ncn(-c4ccc(OC(F)(F)F)cc4)n3)cc2)cc1 [Compound 100] | B (Less than 80) | B (Less than 50) | B (Less than 50)
CC(OC(=O)Nc1ccc(-c2ncn(-c3ccc(OC(F)(F)F)cc3)n2)cc1)C1CC1 (stereo not drawn) [Compound 15, 4 {4-[1-(4-trifluoromethoxyphenyl)-1H-[1,2,4]triazol-3-yl]-phenyl}-carbamic acid 1-cyclopropyl-ethyl ester] | B (Less than 80) | A (50-100) | A (50-100)
COCCOCC(C)(C)OC(=O)Nc1ccc(-c2ncn(-c3ccc(OC(F)(F)F)cc3)n2)cc1 [Compound 18] | B (Less than 80) | A (50-100) | A (50-100)
CC(OC(=O)Nc1ccc(-c2ncn(-c3ccc(OC(F)(F)F)cc3)n2)cc1)c1ccc(Cl)cn1 (stereo not drawn) [Compound 118] | B (Less than 80) | A (50-100) | A (50-100)
CCC(OC(=O)Nc1ccc(-c2ncn(-c3ccc(OC(F)(F)F)cc3)n2)cc1)c1ccccc1 (stereo not drawn) [Compound 85] | B (Less than 80) | A (50-100) | A (50-100)
